Columns and labels:
Assay in all cases: relative viability (nuclei count vs DMSO), 5 days (fraction); higher = more cells survive
PC-3 [JPC-3] = system: PC-3 [JPC-3]
Method in brief: (§1)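 Lung cancer cell lines were pin-tool dosed in 1536-well plates on the day after seeding, with either a lone drug or a fixed anchor-drug dose plus five library-drug doses (not always all listed) in √10 steps. Nuclei were counted on 4× images after 5 days. Relative viability is the ratio of treated-well to vehicle-well nuclei counts, with each value a median of duplicate plates.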

UMC-11 = system: UMC-11
Method in brief: as §1

LK-2 = system: LK-2
Method in brief: as §1

LU99A = system: LU99A
Method in brief: as §1

SK-LU-1 = system: SK-LU-1
Method in brief: as §1

NCI-H2228 = system: NCI-H2228
Method in brief: as §1

LCLC-97TM1 = system: LCLC-97TM1
Method in brief: as §1

NCI-H1993 = system: NCI-H1993
Method in brief: as §1

HCC-827 = system: HCC-827
Method in brief: as §1

NCI-H1650 = system: NCI-H1650
Method in brief: as §1

LXF-289 = system: LXF-289
Method in brief: as §1

NCI-H2170 = system: NCI-H2170
Method in brief: as §1

EPLC-272H = system: EPLC-272H
Method in brief: as §1

ChaGo-K-1 = system: ChaGo-K-1
Method in brief: as §1

EKVX = system: EKVX
Method in brief: as §1

SW 1573 = system: SW 1573
Method in brief: as §1

NCI-H2405 = system: NCI-H2405
Method in brief: as §1

NCI-H522 = system: NCI-H522
Method in brief: as §1

HOP-62 = system: HOP-62
Method in brief: as §1

NCI-H441 = system: NCI-H441
Method in brief: as §1

H3255 = system: H3255
Method in brief: as §1

NCI-H1355 = system: NCI-H1355
Method in brief: as §1

NCI-H3122 = system: NCI-H3122
Method in brief: as §1

For Cc1csc(=NC2CCCCC2)n1/N=C/c1ccc(O)c(O)c1O [MIM1] + CC(=O)Nc1cccc(-n2c(=O)n(C3CC3)c(=O)c3c(Nc4ccc(I)cc4F)n(C)c(=O)c(C)c32)c1 [Trametinib] (partner 0.02 µM), the relative viability (PC-3 [JPC-3]; first compound 0.2 µM) was 0.643, the relative viability (PC-3 [JPC-3]; first compound 0.6325 µM) was 0.687 and the relative viability (PC-3 [JPC-3]; first compound 2 µM) was 0.655. For the same compound, the relative viability (PC-3 [JPC-3]; first compound 6.325 µM) was 0.521, the relative viability (PC-3 [JPC-3]; first compound 20 µM) was 0.558 and the relative viability (UMC-11; first compound 0.2 µM) was 0.724. It also gave a relative viability (UMC-11; first compound 0.6325 µM) of 0.267, a relative viability (UMC-11; first compound 2 µM) of 0.751 and a relative viability (UMC-11; first compound 6.325 µM) of 0.475. The relative viability (UMC-11; first compound 20 µM) was 0.156, the relative viability (LK-2; first compound 0.2 µM) was 1.02 and the relative viability (LK-2; first compound 0.6325 µM) was 0.693. The relative viability (LK-2; first compound 2 µM) was 0.625, the relative viability (LK-2; first compound 6.325 µM) was 1.02 and the relative viability (LK-2; first compound 20 µM) was 0.236. It also gave a relative viability (LU99A; first compound 0.2 µM) of 0.571, a relative viability (LU99A; first compound 0.6325 µM) of 0.611 and a relative viability (LU99A; first compound 2 µM) of 0.604. The relative viability (LU99A; first compound 6.325 µM) was 0.469, the relative viability (LU99A; first compound 20 µM) was 0.164 and the relative viability (SK-LU-1; first compound 0.2 µM) was 0.471. For the same compound, the relative viability (SK-LU-1; first compound 0.6325 µM) was 0.528, the relative viability (SK-LU-1; first compound 2 µM) was 0.516 and the relative viability (SK-LU-1; first compound 6.325 µM) was 0.459. For the same compound, the relative viability (SK-LU-1; first compound 20 µM) was 0.202, the relative viability (NCI-H2228; first compound 0.2 µM) was 0.54 and the relative viability (NCI-H2228; first compound 0.6325 µM) was 0.642. The relative viability (NCI-H2228; first compound 2 µM) was 0.506, the relative viability (NCI-H2228; first compound 6.325 µM) was 0.307 and the relative viability (NCI-H2228; first compound 20 µM) was 0.13. It also gave a relative viability (LCLC-97TM1; first compound 0.2 µM) of 0.207, a relative viability (LCLC-97TM1; first compound 0.6325 µM) of 0.218 and a relative viability (LCLC-97TM1; first compound 2 µM) of 0.217. The relative viability (LCLC-97TM1; first compound 6.325 µM) was 0.196, the relative viability (LCLC-97TM1; first compound 20 µM) was 0.0682 and the relative viability (NCI-H1993; first compound 0.2 µM) was 0.433. For the same compound, the relative viability (NCI-H1993; first compound 0.6325 µM) was 0.43, the relative viability (NCI-H1993; first compound 2 µM) was 0.511 and the relative viability (NCI-H1993; first compound 6.325 µM) was 0.448. The relative viability (NCI-H1993; first compound 20 µM) was 0.351, the relative viability (HCC-827; first compound 0.2 µM) was 0.501 and the relative viability (HCC-827; first compound 0.6325 µM) was 0.506. For the same compound, the relative viability (HCC-827; first compound 2 µM) was 0.522, the relative viability (HCC-827; first compound 6.325 µM) was 0.384 and the relative viability (HCC-827; first compound 20 µM) was 0.443. It also gave a relative viability (NCI-H1650; first compound 0.2 µM) of 0.697, a relative viability (NCI-H1650; first compound 0.6325 µM) of 0.619 and a relative viability (NCI-H1650; first compound 2 µM) of 0.424. For the same compound, the relative viability (NCI-H1650; first compound 6.325 µM) was 0.182, the relative viability (NCI-H1650; first compound 20 µM) was 0.138 and the relative viability (LXF-289; first compound 0.2 µM) was 0.625. For the same compound, the relative viability (LXF-289; first compound 0.6325 µM) was 0.664, the relative viability (LXF-289; first compound 2 µM) was 0.705 and the relative viability (LXF-289; first compound 6.325 µM) was 0.607. For the same compound, the relative viability (LXF-289; first compound 20 µM) was 0.221, the relative viability (NCI-H2170; first compound 0.2 µM) was 0.859 and the relative viability (NCI-H2170; first compound 0.6325 µM) was 1.01. It also gave a relative viability (NCI-H2170; first compound 2 µM) of 0.914, a relative viability (NCI-H2170; first compound 6.325 µM) of 0.609 and a relative viability (NCI-H2170; first compound 20 µM) of 0.368. For the same compound, the relative viability (EPLC-272H; first compound 0.2 µM) was 0.322, the relative viability (EPLC-272H; first compound 0.6325 µM) was 0.279 and the relative viability (EPLC-272H; first compound 2 µM) was 0.273. The relative viability (EPLC-272H; first compound 6.325 µM) was 0.24, the relative viability (EPLC-272H; first compound 20 µM) was 0.16 and the relative viability (ChaGo-K-1; first compound 0.2 µM) was 0.889. It also gave a relative viability (ChaGo-K-1; first compound 0.6325 µM) of 0.913, a relative viability (ChaGo-K-1; first compound 2 µM) of 0.876 and a relative viability (ChaGo-K-1; first compound 6.325 µM) of 0.607. It also gave a relative viability (ChaGo-K-1; first compound 20 µM) of 0.193, a relative viability (EKVX; first compound 0.2 µM) of 0.304 and a relative viability (EKVX; first compound 0.6325 µM) of 0.287. It also gave a relative viability (EKVX; first compound 2 µM) of 0.289, a relative viability (EKVX; first compound 6.325 µM) of 0.267 and a relative viability (EKVX; first compound 20 µM) of 0.269. The relative viability (SW 1573; first compound 0.2 µM) was 0.647, the relative viability (SW 1573; first compound 0.6325 µM) was 0.574 and the relative viability (SW 1573; first compound 2 µM) was 0.553. For the same compound, the relative viability (SW 1573; first compound 6.325 µM) was 0.361, the relative viability (SW 1573; first compound 20 µM) was 0.13 and the relative viability (NCI-H2405; first compound 0.2 µM) was 0.586. The relative viability (NCI-H2405; first compound 0.6325 µM) was 0.75, the relative viability (NCI-H2405; first compound 2 µM) was 0.656 and the relative viability (NCI-H2405; first compound 6.325 µM) was 0.603. The relative viability (NCI-H2405; first compound 20 µM) was 0.685, the relative viability (NCI-H522; first compound 0.2 µM) was 0.727 and the relative viability (NCI-H522; first compound 0.6325 µM) was 0.654. It also gave a relative viability (NCI-H522; first compound 2 µM) of 0.834, a relative viability (NCI-H522; first compound 6.325 µM) of 0.897 and a relative viability (NCI-H522; first compound 20 µM) of 0.675. The relative viability (HOP-62; first compound 0.2 µM) was 0.386, the relative viability (HOP-62; first compound 0.6325 µM) was 0.417 and the relative viability (HOP-62; first compound 2 µM) was 0.379. It also gave a relative viability (HOP-62; first compound 6.325 µM) of 0.344, a relative viability (HOP-62; first compound 20 µM) of 0.266 and a relative viability (NCI-H441; first compound 0.2 µM) of 0.558. For the same compound, the relative viability (NCI-H441; first compound 0.6325 µM) was 0.409, the relative viability (NCI-H441; first compound 2 µM) was 0.484 and the relative viability (NCI-H441; first compound 6.325 µM) was 0.302. For the same compound, the relative viability (NCI-H441; first compound 20 µM) was 0.211, the relative viability (H3255; first compound 0.2 µM) was 0.578 and the relative viability (H3255; first compound 0.6325 µM) was 0.618. It also gave a relative viability (H3255; first compound 2 µM) of 0.56, a relative viability (H3255; first compound 6.325 µM) of 0.529 and a relative viability (H3255; first compound 20 µM) of 0.293. The relative viability (NCI-H1355; first compound 0.2 µM) was 0.419, the relative viability (NCI-H1355; first compound 0.6325 µM) was 0.436 and the relative viability (NCI-H1355; first compound 2 µM) was 0.457. The relative viability (NCI-H1355; first compound 6.325 µM) was 0.384, the relative viability (NCI-H1355; first compound 20 µM) was 0.375 and the relative viability (NCI-H3122; first compound 0.2 µM) was 0.239. For the same compound, the relative viability (NCI-H3122; first compound 0.6325 µM) was 0.244, the relative viability (NCI-H3122; first compound 2 µM) was 0.261 and the relative viability (NCI-H3122; first compound 6.325 µM) was 0.302. For the same compound, the relative viability (NCI-H3122; first compound 20 µM) was 0.125.
